Measurements as given in article PMC10821025, “Bioprospection of Tenellins Produced by the Entomopathogenic Fungus Beauveria neobassiana” (Journal of Fungi, 2024).
In brackets after ≈: the same amount, converted by molar mass. Where two headings read alike, the source gives them in different places. Blank lines part the entries; values can stand above or below the compound they belong to.

Columns and labels:
[1] = tested on: Acinetobacter baumanii [DSM 30008]; assay: Serial dilution assay (MIC); format: cell-based; details: Acinetobacter baumannii, DSM30008
Procedure: (§1) All isolated compounds were assessed for their antimicrobial activity using a serial dilution assay over a concentration range from 67 to 0.5 µg/mL following the previously described protocols. In brief, the antimicrobial activity of all isolated metabolites was assessed by determining their minimum inhibitory concentration (MIC) against a range of different pathogens, including five fungal species: Candida albicans [DSM 1665], Mucor hiemalis [DSM 2656], Schizosaccharomyces pombe [DSM 70572], Rhodotorula glutinis [DSM 10134], and Wickerhamomyces anomalus [DSM 6766], as well as various Gram-positive: Staphylococcus aureus [DSM 346], Bacillus subtilis [DSM 10], Mycolicibacterium smegmatis [ATCC 700084], and Gram-negative bacteria: Acinetobacter baumanii [DSM 30008], Escherichia coli [DSM 1116], Chromobacterium violaceum [DSM 30191], and Pseudomonas aeruginosa [PA14]. In our experiments, gentamicin served as the positive control against most bacteria, while nystatin acted as the positive control against all fungi. For specific microorganisms, namely A. baumannii, B. subtilis, and M. smegmatis, ciprofloxacin, oxytetracycline, and kanamycin were used as positive controls, respectively.

[2] = tested on: S. aureus (DSM 1104) biofilm formation; assay: Biofilm inhibition assay (Crystal Violet staining); format: cell-based, Staphylococcus aureus; details: for concentration below which biofilm inhibitory activity is lost: S. aureus biofilm, tested 125–7.8 µg/mL; for Biofilm inhibition (% ± SD): S. aureus (DSM 1104)
Procedure: The compounds were evaluated for their ability to inhibit S. aureus (DSM 1104) biofilm formation, following the established procedure. Briefly, serially diluted compounds (125–7.8 µg/mL) were co-incubated with S. aureus in 96-well plates in CASO medium supplemented with 4% of glucose (see Supplementary Materials). Biofilm inhibition was assessed by using Crystal Violet staining after […], with microporenic acid A serving as a positive control and methanol as solvent control.
Biofilm inhibition assays were condu cted acco rding to th e methodolo g y previousl y described (Soliga et al., 2021), targeting the inhibition of biofilm formation in Staphylococcus aureus […]
S. aureus were cultured i n LB and CASO medium at 37 °C for 18 h, respect ivel y, in a shaker at 120 rpm after being thawed from a -20 °C stock solution. The culture's optical densit y at 600 nm (OD600) was measured and adjusted to a 0.1 McFarland standard in M63 minimal medium supplemented with necessar y nutrients and CASO medi um with 4% glucose for S. aureus, respectively. Microtiter plates were loaded with 150 µL of the bacterial suspension containing s eriall y diluted test compounds (7.8 -125 µg/m L) and incubated for 24 h at 37 °C. The evaluation of biofilm inhibition was performed by staining the biofilm with 0.1% cr ystal violet (CV). After staining, the plates were washed, and the biofilm dissolved in 95% ethanol. The absorbance of the dissolved biofilm was measured at 530 nm using a plat e reader. Negative control involved methanol (2.5%) while microporenic acid A at a concentration range of 7.8 to 125 µg/mL were used as the positive control for S. aureus (Chepkirui et al., 2018). All experiments were performed three times, and the standard deviation (SD) was maintained at or below 15% for S. aureus .
Differences between sam ples and the control grou p were determined b y a t wo-tailed Student’s t-test. Statistical significan ce was defined as p < 0.01. Anal ysis was carri ed out using GraphPad Prism 9® (GraphPad Software, San Diego, CA, USA). […]

[3] = tested on: human endocervical adenocarcinoma (KB-3.1); assay: Cytotoxicity assay, KB3.1; format: cell-based; details: 5 days of incubation
Procedure: (§2) The cytotoxicity of isolated compounds was determined as previously described over a concentration range between […] against two mammalian cell lines: mouse fibroblasts (L-929) and human endocervical adenocarcinoma (KB-3.1). […] Following 5 days of incubation, we determined the minimum concentration of the tested compounds required to achieve 50% growth inhibition, expressed as IC50 values.

[4] = tested on: mouse fibroblasts (L-929); assay: Cytotoxicity assay, L929; format: cell-based; details: L929 (fibroblast), 5 days of incubation
Procedure: as §2

[5] = tested on: Pseudomonas aeruginosa [PA14]; assay: Serial dilution assay (MIC); format: cell-based
Procedure: as §1

[6] = tested on: Mycolicibacterium smegmatis [ATCC 700084]; assay: Serial dilution assay (MIC); format: cell-based; details: for MIC: Mycolicibacterium smegmatis, ATCC700084
Procedure: as §1

[7] = tested on: Staphylococcus aureus [DSM 346]; assay: Serial dilution assay (MIC); format: cell-based
Procedure: as §1

[8] = tested on: Candida albicans [DSM 1665]; assay: Serial dilution assay (MIC); format: cell-based
Procedure: as §1

[9] = tested on: Bacillus subtilis [DSM 10]; assay: Serial dilution assay (MIC); format: cell-based
Procedure: as §1

[10] = tested on: Escherichia coli [DSM 1116]; assay: Serial dilution assay (MIC); format: cell-based
Procedure: as §1

[11] = tested on: Mucor hiemalis [DSM 2656]; assay: Serial dilution assay (MIC); format: cell-based
Procedure: as §1

[12] = tested on: Chromobacterium violaceum [DSM 30191]; assay: Serial dilution assay (MIC); format: cell-based
Procedure: as §1

[13] = tested on: lung cancer (A-549) cell line; assay: Cytotoxicity assay, A549; format: cell-based; details: Homo sapiens
[14] = tested on: breast cancer (MCF-7) cell line; assay: Cytotoxicity assay, MCF-7; format: cell-based; details: Homo sapiens, MCF7, 120 h
[15] = tested on: Wickerhamomyces anomalus [DSM 6766]; assay: Serial dilution assay (MIC); format: cell-based
Procedure: as §1

[16] = tested on: Rhodotorula glutinis [DSM 10134]; assay: Serial dilution assay (MIC); format: cell-based
Procedure: as §1

[17] = tested on: Schizosaccharomyces pombe [DSM 70572]; assay: Serial dilution assay (MIC); format: cell-based
Procedure: as §1

[18] = Staphylococcus aureus, DSM1104, read-out: Biofilm inhibition (% ± SD), S. aureus (DSM 1104), 62.5 µg/ml
[19] = Staphylococcus aureus, DSM1104, read-out: Biofilm inhibition (% ± SD), S. aureus (DSM 1104), 125 µg/ml
[20] = Homo sapiens, KB 3-1, 120 h, KB3.1 (endocervical adenocarcinoma)
[21] = KB3.1 (endocervical adenocarcinoma)

Structure (SMILES): CCC(C)/C=C(C)/C=C/C(=O)c1c(O)c(-c2ccc(O)cc2)c[nH]c1=O (stereo not drawn) [Compound 3, Pretenellin B]
inhibitory activity on S. aureus biofilm formation (in words) ([2]; 125–7.8 µg/mL): promising activities in a dose-dependent manner
Biofilm inhibition (% ± SD) ([2]; 7.8 µg/ml, listed as pretenellin B (3)): ca. 30%
inhibition at 7.8 µg/mL ([2]; Staphylococcus aureus, DSM1104, read-out: Biofilm inhibition (% ± SD), S. aureus (DSM 1104), 7.8 µg/ml): 37 ± 7%
inhibition at 15.62 µg/mL ([2]; Staphylococcus aureus, DSM1104, read-out: Biofilm inhibition (% ± SD), S. aureus (DSM 1104), 15.62 µg/ml): 52 ± 6%
inhibition at 31.25 µg/mL ([2]; Staphylococcus aureus, DSM1104, read-out: Biofilm inhibition (% ± SD), S. aureus (DSM 1104), 31.25 µg/ml): 79 ± 8%
inhibition at 62.5 µg/mL [2, 18]: 83 ± 6%
inhibition at 125 µg/mL [2, 19]: 83 ± 6%
IC50 [3, 20]: 20.2 µM
IC50 (µM) [3, 21]: weak or no activity
IC50 (µM) [4]: weak or no activity
IC50 ([4]; Mus musculus, L929, 120 h): 48.2 µM
MIC [5]: > 67 µg/mL
MIC [6]: > 67 µg/mL
MIC ([7]; DSM346): 66.6 µg/mL (≈ 188 µM)
MIC ([8]; DSM1665): > 67 µg/mL
MIC ([12]; DSM30191): > 67 µg/mL
MIC ([9]; DSM10): 66.6 µg/mL (≈ 188 µM)
MIC ([10]; DSM1116): > 67 µg/mL
MIC ([11]; DSM2656): > 67 µg/mL

Structure (SMILES): CCC(/C=C(C)/C=C/C(=O)c1c(O)c(-c2ccc(O)cc2)c[nH]c1=O)CO (stereo not drawn) [Compound 6, Pyridovericin]
concentration below which biofilm inhibitory activity is lost [2]: 62.5 µg/mL
inhibition at 62.5 µg/mL [2, 18]: 48 ± 5%
inhibition at 125 µg/mL [2, 19]: 64 ± 14%
IC50 [3, 20]: 4.9 to 6.8 µM
IC50 [3, 21]: 4.9 µM
IC50 ([13]; 120 h, A549 (lung), 5 days of incubation, read-out: IC50): 24100 nM
IC50 [4]: 5.7 µM
IC50 ([4]; Mus musculus, L929, 120 h): 4.9 to 6.8 µM
IC50 ([14]; MCF-7 (breast), 5 days of incubation, read-out: IC50): 7300 nM
MIC [5]: > 67 µg/mL
MIC [6]: > 67 µg/mL
MIC ([7]; DSM346): 66.6 µg/mL (≈ 180 µM)
MIC ([8]; DSM1665): > 67 µg/mL
MIC ([9]; DSM10): 66.6 µg/mL (≈ 180 µM)
MIC ([10]; DSM1116): > 67 µg/mL
MIC ([11]; DSM2656): > 67 µg/mL

Structure (SMILES): C/C(=C\c1csc(C)n1)[C@@H]1C[C@@H]2O[C@]2(C)CCC[C@H](C)[C@H](O)[C@@H](C)C(=O)C(C)(C)[C@@H](O)CC(=O)O1 [Epothilone B, reference compound]
IC50 ([13]; A549, 120 h, read-out: IC50, Positive Control Epothilone B (nM)): 0.05 nM
IC50 ([14]; read-out: IC50, Positive Control Epothilone B (nM)): 0.07 nM

Structure (SMILES): NC[C@H]1O[C@H](O[C@H]2[C@H](O)[C@@H](O[C@H]3O[C@H](CO)[C@@H](O)[C@H](N)[C@H]3O)[C@H](N)C[C@@H]2N)[C@H](O)[C@@H](O)[C@@H]1O [Kanymycin, reference compound]
MIC (µg/mL) ([6]; Mycobacterium smegmatis): 1.70 ^K µg/mL

Structure (SMILES): CC(C)=CCC/C(C)=C/CC/C(C)=C/CC/C(C)=C/CO[C@@H](C(=O)O)[C@H](CC(=O)O)C(=O)O [Microporenic acid A, reference compound]
Biofilm inhibition (% ± SD) ([2]; 7.8 µg/ml): 41 ± 9%
Biofilm inhibition (% ± SD) ([2]; 15.62 µg/ml): 70 ± 13%
Biofilm inhibition (% ± SD) ([2]; 31.25 µg/ml): 85 ± 1%
Biofilm inhibition (% ± SD) ([2]; 62.5 µg/ml): 84 ± 1%
Biofilm inhibition (% ± SD) ([2]; 125 µg/ml): 86 ± 0%

Structure (SMILES): C[C@@H]1[C@H](O)[C@@H](C)/C=C/C=C/CC/C=C/C=C/C=C/C=C/C(O[C@H]2O[C@H](C)[C@@H](O)[C@H](N)[C@@H]2O)CC2O[C@](O)(CC(O)C(O)CCC(O)CC(O)CC(O)CC(=O)O[C@H]1C)CC(O)C2C(=O)O (stereo partly drawn) [Nystatin, reference compound]
MIC (µg/mL) [15]: 16.6 ^N µg/mL
MIC (µg/mL) [16]: 4.20 ^N µg/mL
MIC (µg/mL) [8]: 8.3 ^N µg/mL
MIC (µg/mL) [11]: 8.30 ^N µg/mL
MIC (µg/mL) [17]: 4.20 ^N µg/mL

More lines, main results first:

MIC [1]: 0.52 µg/mL (≈ 1.57 µM)
Structure (SMILES): O=C(O)c1cn(C2CC2)c2cc(N3CCNCC3)c(F)cc2c1=O [Ciprofloxacin, reference compound]

MIC ([5]; read-out: MIC): > 67 µg/mL
MIC ([6]; Mycobacterium smegmatis, read-out: MIC): > 67 µg/mL
MIC ([7]; DSM346, read-out: MIC): > 67 µg/mL
MIC ([8]; DSM1665, read-out: MIC): > 67 µg/mL
MIC ([9]; DSM10, read-out: MIC): > 67 µg/mL
MIC ([10]; DSM1116, read-out: MIC): > 67 µg/mL
MIC ([11]; DSM2656, read-out: MIC): > 67 µg/mL
Structure (SMILES): O=C(O)c1c(O)c(-c2ccc(O)cc2)cn(O)c1=O [Compound 1, Pretenellin C]
concentration below which biofilm inhibitory activity is lost [2]: 31.3 µg/mL
inhibition at 31.25 µg/mL ([2]; Staphylococcus aureus, DSM1104, S. aureus (DSM 1104), 31.25 µg/ml, read-out: Biofilm inhibition (% ± SD)): 46 ± 9%
inhibition at 62.5 µg/mL ([2]; Staphylococcus aureus, DSM1104, S. aureus (DSM 1104), 62.5 µg/ml, read-out: Biofilm inhibition (% ± SD)): 63 ± 16%
inhibition at 125 µg/mL ([2]; Staphylococcus aureus, DSM1104, S. aureus (DSM 1104), 125 µg/ml, read-out: Biofilm inhibition (% ± SD)): 74 ± 5%
IC50 ([3]; Homo sapiens, KB 3-1, 120 h, KB3.1 (ovary)): > 37 µg/mL
IC50 (µM) ([3]; KB3.1 (endocervical adenocarcinoma), listed as pretenellin C (1)): weak or no activity
IC50 (µM) ([4]; listed as pretenellin C (1)): weak or no activity
IC50 ([4]; Mus musculus, L929, 120 h): > 37 µg/mL

MIC ([5]; read-out: MIC): 0.21 µg/mL (≈ 0.44 µM)
MIC ([7]; DSM346, read-out: MIC): 0.21 µg/mL (≈ 0.44 µM)
MIC ([12]; DSM30191, read-out: MIC): 1.7 µg/mL (≈ 3.56 µM)
MIC ([10]; DSM1116, read-out: MIC): 0.42 µg/mL (≈ 0.879 µM)
Structure (SMILES): CNC(C)C1CCC(N)C(OC2C(N)CC(N)C(OC3OCC(C)(O)C(NC)C3O)C2O)O1 (stereo not drawn) [Gentamycin, reference compound]

MIC ([9]; DSM10, read-out: MIC): 16.6 µg/mL (≈ 36.1 µM)
Structure (SMILES): CN(C)[C@@H]1C(O)=C(C(N)=O)C(=O)[C@@]2(O)C(O)=C3C(=O)c4c(O)cccc4[C@@](C)(O)[C@H]3[C@H](O)[C@@H]12 [Oxytetracycline, reference compound]
